Test results reported in PubChem BioAssay (NCI).
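Here, GI50 denotes the concentration required for 50% inhibition of growth. TGI: total growth inhibition.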

Assays:
Experiment in all cases: NCI anticancer screen, dose series, 384-well format
NCI-H522 lung = test system: NCI-H522 lung
HL-60(TB) leukemia = test system: HL-60(TB) leukemia
SF-539 CNS = test system: SF-539 CNS
EKVX NSCLC = test system: EKVX NSCLC
CAKI-1 renal = test system: CAKI-1 renal
MDA-MB-468 breast = test system: MDA-MB-468 breast
RXF 393 renal = test system: RXF 393 renal
HOP-62 NSCLC = test system: HOP-62 NSCLC
MCF7 breast = test system: MCF7 breast
T-47D breast = test system: T-47D breast
IGROV1 ovarian = test system: IGROV1 ovarian
KM12 colon = test system: KM12 colon
SK-MEL-5 melanoma = test system: SK-MEL-5 melanoma
A498 renal = test system: A498 renal
MDA-MB-435 melanoma = test system: MDA-MB-435 melanoma
TK-10 renal = test system: TK-10 renal
NCI-H23 lung = test system: NCI-H23 lung
OVCAR-3 ovarian = test system: OVCAR-3 ovarian
OVCAR-4 ovarian = test system: OVCAR-4 ovarian
SF-268 CNS = test system: SF-268 CNS
SW-620 colon = test system: SW-620 colon
SNB-19 CNS = test system: SNB-19 CNS
HS 578T breast = test system: HS 578T breast
786-0 renal = test system: 786-0 renal
DU-145 prostate = test system: DU-145 prostate
PC-3 prostate = test system: PC-3 prostate
MDA-MB-231 breast = test system: MDA-MB-231 breast
OVCAR-8 ovarian = test system: OVCAR-8 ovarian
ACHN renal = test system: ACHN renal
NCI-H226 lung = test system: NCI-H226 lung
SK-OV-3 ovarian = test system: SK-OV-3 ovarian
OVCAR-5 ovarian = test system: OVCAR-5 ovarian
NCI/ADR-RES ovarian = test system: NCI/ADR-RES ovarian
MOLT-4 leukemia = test system: MOLT-4 leukemia
CCRF-CEM leukemia = test system: CCRF-CEM leukemia
HCC-2998 colon = test system: HCC-2998 colon
HOP-92 NSCLC = test system: HOP-92 NSCLC
NCI-H460 NSCLC = test system: NCI-H460 NSCLC
SN12C renal = test system: SN12C renal
SNB-75 CNS = test system: SNB-75 CNS
HCT-116 colon = test system: HCT-116 colon
MALME-3M melanoma = test system: MALME-3M melanoma
HCT-15 colon = test system: HCT-15 colon

Which GI50 (NCI-H522 lung) does the source give for `CN1CCN(c2ccc(OC(F)(F)F)c(Nc3ncc4c(n3)-c3c(c(C(N)=O)nn3CCO)CC4)c2)CC1` here?
The GI50 was under 10 nM.

What about the TGI (NCI-H522 lung) of the same compound?
Its TGI is 26.6 nM.

What about the GI50 (HL-60(TB) leukemia) of the same compound?
The GI50 was under 10 nM.

And the TGI (HL-60(TB) leukemia)?
Its TGI is under 10 nM.

And the GI50 (SF-539 CNS)?
The GI50 was 30.8 nM.

And the TGI (SF-539 CNS)?
Its TGI is 263 nM.

What about the GI50 (EKVX NSCLC) of the same compound?
The GI50 was 93.6 nM.

And the TGI (EKVX NSCLC)?
Its TGI is 19.4 µM.

What about the GI50 (CAKI-1 renal) of the same compound?
Its GI50 is 478 nM.

What about the TGI (CAKI-1 renal) of the same compound?
The TGI was 19.4 µM.

What about the GI50 (MDA-MB-468 breast) of the same compound?
Its GI50 is under 10 nM.

And the TGI (MDA-MB-468 breast)?
The TGI was under 10 nM.

What about the GI50 (RXF 393 renal) of the same compound?
The GI50 was 15.1 nM.

And the TGI (RXF 393 renal)?
Its TGI is 43.9 nM.

And the GI50 (HOP-62 NSCLC)?
Its GI50 is 25.2 nM.

What about the TGI (HOP-62 NSCLC) of the same compound?
The TGI was 297 nM.

And the GI50 (MCF7 breast)?
The GI50 was 18.3 nM.

And the TGI (MCF7 breast)?
Its TGI is 12.5 µM.

What about the GI50 (T-47D breast) of the same compound?
Its GI50 is 184 nM.

What about the TGI (T-47D breast) of the same compound?
The TGI was 8.33 µM.

What about the GI50 (IGROV1 ovarian) of the same compound?
Its GI50 is 40.6 nM.

What about the TGI (IGROV1 ovarian) of the same compound?
Its TGI is 15.9 µM.

What about the GI50 (KM12 colon) of the same compound?
The GI50 was 11.4 nM.

What about the TGI (KM12 colon) of the same compound?
The TGI was 95.4 nM.

And the GI50 (SK-MEL-5 melanoma)?
Its GI50 is 11.5 nM.

And the TGI (SK-MEL-5 melanoma)?
The TGI was 121 nM.

What about the GI50 (A498 renal) of the same compound?
The GI50 was 87.1 nM.

And the TGI (A498 renal)?
Its TGI is 17.3 µM.

And the GI50 (MDA-MB-435 melanoma)?
Its GI50 is 10.8 nM.

And the TGI (MDA-MB-435 melanoma)?
The TGI was 28.8 nM.

What about the GI50 (TK-10 renal) of the same compound?
Its GI50 is 17.3 µM.

And the TGI (TK-10 renal)?
Its TGI is over 100 µM.

What about the GI50 (NCI-H23 lung) of the same compound?
The GI50 was 13.9 nM.

And the TGI (NCI-H23 lung)?
Its TGI is 37.7 nM.

What about the GI50 (OVCAR-3 ovarian) of the same compound?
The GI50 was under 10 nM.

And the TGI (OVCAR-3 ovarian)?
Its TGI is 37.2 nM.

What about the GI50 (OVCAR-4 ovarian) of the same compound?
The GI50 was 6.1 µM.

What about the TGI (OVCAR-4 ovarian) of the same compound?
The TGI was 27.1 µM.

What about the GI50 (SF-268 CNS) of the same compound?
Its GI50 is under 10 nM.

What about the TGI (SF-268 CNS) of the same compound?
Its TGI is 12 nM.

And the GI50 (SW-620 colon)?
Its GI50 is 13.6 nM.

And the TGI (SW-620 colon)?
The TGI was 145 nM.

What about the GI50 (SNB-19 CNS) of the same compound?
The GI50 was 39.2 nM.

What about the TGI (SNB-19 CNS) of the same compound?
The TGI was over 100 µM.

What about the GI50 (HS 578T breast) of the same compound?
Its GI50 is 20.2 nM.

And the TGI (HS 578T breast)?
Its TGI is 54.1 nM.

And the GI50 (786-0 renal)?
The GI50 was 52.7 nM.

And the TGI (786-0 renal)?
The TGI was 10.3 µM.

What about the GI50 (DU-145 prostate) of the same compound?
Its GI50 is 26.4 nM.

And the TGI (DU-145 prostate)?
The TGI was 104 nM.

And the GI50 (PC-3 prostate)?
The GI50 was 43.8 nM.

And the TGI (PC-3 prostate)?
The TGI was 35.2 µM.

And the GI50 (MDA-MB-231 breast)?
The GI50 was 38.3 nM.

And the TGI (MDA-MB-231 breast)?
Its TGI is 58.1 µM.

What about the GI50 (OVCAR-8 ovarian) of the same compound?
The GI50 was 18.3 nM.

What about the TGI (OVCAR-8 ovarian) of the same compound?
The TGI was 37.6 nM.

And the GI50 (ACHN renal)?
Its GI50 is 554 nM.

What about the TGI (ACHN renal) of the same compound?
The TGI was 19.7 µM.

And the GI50 (NCI-H226 lung)?
The GI50 was 14.8 µM.

And the TGI (NCI-H226 lung)?
The TGI was 56.3 µM.

And the GI50 (SK-OV-3 ovarian)?
The GI50 was 37.6 nM.

What about the TGI (SK-OV-3 ovarian) of the same compound?
Its TGI is over 100 µM.

What about the GI50 (OVCAR-5 ovarian) of the same compound?
The GI50 was 30.8 nM.

And the TGI (OVCAR-5 ovarian)?
The TGI was over 100 µM.

What about the GI50 (NCI/ADR-RES ovarian) of the same compound?
The GI50 was 325 nM.

What about the TGI (NCI/ADR-RES ovarian) of the same compound?
The TGI was 1330 nM.

What about the GI50 (MOLT-4 leukemia) of the same compound?
The GI50 was 10 nM.

And the TGI (MOLT-4 leukemia)?
Its TGI is 22.1 nM.

And the GI50 (CCRF-CEM leukemia)?
The GI50 was under 10 nM.

What about the TGI (CCRF-CEM leukemia) of the same compound?
The TGI was under 10 nM.

And the GI50 (HCC-2998 colon)?
The GI50 was 18.4 nM.

What about the TGI (HCC-2998 colon) of the same compound?
The TGI was 61.6 nM.

And the GI50 (HOP-92 NSCLC)?
The GI50 was 73.9 nM.

And the TGI (HOP-92 NSCLC)?
Its TGI is 6.66 µM.

And the GI50 (NCI-H460 NSCLC)?
The GI50 was 17.8 nM.

And the TGI (NCI-H460 NSCLC)?
The TGI was 37.7 nM.

And the GI50 (SN12C renal)?
Its GI50 is 546 nM.

What about the TGI (SN12C renal) of the same compound?
Its TGI is 15.1 µM.

And the GI50 (SNB-75 CNS)?
The GI50 was 64 nM.

What about the TGI (SNB-75 CNS) of the same compound?
The TGI was 4.69 µM.

What about the GI50 (HCT-116 colon) of the same compound?
The GI50 was 19.8 nM.

And the TGI (HCT-116 colon)?
Its TGI is 13 µM.

And the GI50 (MALME-3M melanoma)?
The GI50 was 68.5 nM.

And the TGI (MALME-3M melanoma)?
The TGI was 16.7 µM.

And the GI50 (HCT-15 colon)?
Its GI50 is 56.1 nM.

What about the TGI (HCT-15 colon) of the same compound?
Its TGI is 347 nM.
